Measurements from patent publication US12281125B2, “Rapamycin derivatives” (NOVARTIS AG, priority 2018, dated 2025).

Columns and labels:
FKBP12 = molecular target: T1, FKBP12 (Homo sapiens, UniProt P62942); assay: SPR assay, binding affinity to FKBP12; conditions: equilibrium dissociation constant
T1 construct: made in house; host or cells: E. coli
Excerpt: N-terminal avi-his6-tagged FKBP fusion proteins were expressed in E. coli and purified with nickel chromatography using standard procedures. Biotinylated his-avi-FKBPs were immobilized on a streptavidin chip using a Biacore 8K (GE Healthcare). […] The single-cycle kinetics data were fit to a 1:1 binding model to measure the association rate ka (1/Ms), the dissociation rate kd (1/s) and the affinity KD (M). […] The single-cycle kinetics data was fit to a 1:1 binding model to measure the association rate ka (1/Ms), the dissociation rate kd (1/s) and the apparent affinity KD (M) for ternary complex formation. The equilibrium dissociation constants (KD) to FKBP12, FKBP51, and FKBP52 are shown below in Table 6.

[1] = tested on: mTORc1 signaling, pS6 (Ser240/244) in MEF TSCl−/− cells; assay: Cell-based assay for rapalog potency (pS6) in MEF TSCl−/− cells; conditions: Mus musculus, 2 hours treatment, average from multiple assays
Description: Rapalog potency was determined using MEF TSCl−/− cell based assay. MEF TSCl−/− cells are Mouse Embryonic Fibroblasts deficient in Tuberous sclerosis protein—TSCl, which negatively regulates mTORc1 signaling and thus display constitutive mTORc1 activation, resulting in phosphorylation (activation) of downstream molecules. This cell-based assay is used to measure inhibition (de-phosphorylation) of S6 and 4EBP1 by rapalogs or other mTOR inhibitors.
MEF TSCl−/− cells were plated on Poly-D-lysine coated 384 well Griener clear bottom plates and incubated overnight at 37° C., 5% CO2. On the following day, cells were washed 8 times with “Hard starve” solution (1 L DPBS+1 g D-(+) glucose+10 ml of 7.5% Sodium Bicarbonate+20 ml of 1M HEPES) and incubated for further 2 hours in the same solution. Cells were next treated with compounds with decreasing concentrations (8 points at 3.16 fold dilutions) and incubated for 2 hours at 37° C., 5% CO2. Cells were fixed with 4% paraformaldehyde for 30 min and washed 5 times with TBS-EDTA followed by immuno-staining with fluorescent tag labeled antibodies for pS6 (Ser240/244) (Cell Signaling #9468) and p4EBP1 (Thr 37/46) (Cell Signaling #5123). Nuclei were visualized with Hoechst (ThermoFisher Scientific #H3570) staining. Cells were imaged (InCell 600) using respective fluorescence channels and the potency of mTOR inhibitors was defined by pS6 IC50 (nM).
In vitro potency of mTOR inhibitors was defined by pS6 IC50 (nM) in MEF TSCl−/− cells.
IC50 values are calculated as the average from multiple assays.

[2] = Pharmacokinetic profile in rats; format: in vivo; conditions: male, Sprague-Dawley, blood, rat
Description: All procedures involving animals were approved by the Institutional Animal Care and Use Committee of the Novartis Institutes for Biomedical Research, Cambridge, Mass., USA. Adult Sprague Dawley (SD) male rats were purchased from Envigo (Indianapolis, USA). Once imported, rats were maintained at the specific pathogen free facilities with controlled temperature and light (22° C., 12-h light/12-h dark cycle: lights on at 0600 h/lights off at 1800 h) and with ad libitum access to food and water. Rats were acclimated for at least 3 days before experiments commenced.
Various organs were collected and frozen in liquid nitrogen. Blood was collected via a tail vein or a cardiac puncture (terminal) and frozen for further pharmacokinetics analyses. All tissues were stored at −80° C. until analyzed.
Concentrations were determined using HPLC/Mass spectrometry.
Compounds were administered to rats aged 7-9 weeks (N=3 per group) p.o. at 3 mg/kg and intravenously (i.v). at 1 mg/kg (FIGS. 3A and 3B).

[3] = tested on: mTORC1 pathway (S6 phosphorylation) in rat liver; assay: Inhibition of mTORc1 pathway in rat liver (p-S6/t-S6 immunoblot); format: in vivo; conditions: single oral dose 1, 3 and 10 mg/kg, liver at 3 hours, compared with vehicle control
Description: Rats were given a single oral dose of Compound 2 at 1, 3 or 10 mg/kg, and liver samples were collected at 3 hours following dosing. Rats treated with a vehicle were used as a control. […] GAPDH (glyceraldehyde 3-phosphate dehydrogenase) was used to control for protein loading. […] In the histogram depicted in FIG. 4B, average arbitrary values that indicate p-S6/t-S6 ratios are shown above each bar. X axis represents orally given doses (1, 3, or 10 mg/kg). Y-axis represents arbitrary units. Six rats were used in each experimental group. Data are mean±standard deviation. Data were analyzed with a one way ANOVA followed by Dunnett's multiple comparison tests, where means from all groups were compared to the vehicle treated group. […]. […]
Various organs were collected and frozen in liquid nitrogen. […] All tissues were stored at −80° C. until analyzed.
For protein extraction, snap frozen tissues were lysed in MSD Lysis Buffer (MSD, Rockville, Md.), supplemented with complete EDTA free protease inhibitor and PhosSTOP phosphatase inhibitor tablets (Roche, Manheim, Germany), and centrifuged at 13,000 g for 20 min at 4° C. […] Protein was quantified with BCA protein assay (Thermo Scientific, MA). […] Glyceraldehyde 3-phosphate dehydrogenase (GAPDH) detected with an anti-GAPDH antibody (#5174, Cell Signaling Technologies, MA) was used as a protein loading control. […]

T1 sequence (P62942 whole entry): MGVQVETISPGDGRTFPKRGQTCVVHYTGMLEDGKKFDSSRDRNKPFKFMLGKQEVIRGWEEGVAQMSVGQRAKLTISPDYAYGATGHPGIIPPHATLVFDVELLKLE

- Kd (FKBP12): 4.8 nM
- IC50 [1]: 0.11 nM
- clearance ([2]; iv, i.v. 1 mg/kg): 13 mL/min/kg
- half-life ([2]; iv, i.v. 1 mg/kg, read-out: iv. terminal half-life (converted)): 19 h
- bioavailability ([2]; oral, p.o. 3 mg/kg and i.v. 1 mg/kg, solution formulation): 16%
SMILES: CO[C@@H]1C[C@H](C[C@@H](C)[C@@H]2CC[C@H](C)/C=C(\C)[C@@H](O)[C@@H](OC)C(=O)[C@H](C)C[C@H](C)/C=C/C=C/C=C(\C)[C@@H](NS(C)(=O)=O)C[C@@H]3CC[C@@H](C)[C@@](O)(O3)C(=O)C(=O)N3CCCC[C@H]3C(=O)O2)CC[C@H]1O [Compound 2]
- de-phosphorylation (inactivation) of S6 in rat livers [3]: significant de-phosphorylation (inactivation) of S6
